Two compounds from patent US7452908B2, “Amide derivatives” (Banyu Pharmaceutical Co., Ltd., priority 1999, dated 2008) can be followed below.

The target of test [1] is T1, muscarinic M3 receptor (Rattus norvegicus, UniProt P08483).
T1 construct: from tissue; host or cells: whole animal, male SD rats (in vivo)
Kind of test: Antagonism to muscarinic M3 receptor in vivo: acetylcholine-induced airway resistance-increasing reaction in rats. To be noted: rat, iv, rats, acetylcholine (50 μg/kg) 5 minutes after test compound; read-out: ED50 Airway constriction M3. As to the method: (§1) Male SD strain rats (weighing 300-500 g) were anesthetized with urethane (1 g/kg) and α-chloralose (50 mg/kg) administered intraperitoneally. The airway and carotid artery of each rat were isolated by laryngotomy and cannulated. The carotid artery cannula was used as the test compound administration route. After suppressing spontaneous respiration by hypodermic administration of succinylcholine (5 mg/body), the rats were transferred into Plethysmograph-box (PLYAN, Buxco) and artificially ventilated under the conditions of ventilation rate of 6 ml/kg per breath and respiration rate of 90 breaths/min., using a pulmotor for small animals (Model 681, Harvard Co.). Measurements of air rate and […], calculation of airway resistance and lung compliance and their recording were conducted with lung function analyzer (Model 6, Buxco). After about 10 minutes' stabilization period, the change in airway resistance induced by intravenous administration of acetylcholine (50 μg/kg) was measured twice at 5 minutes' interval. The change in airway resistance induced by the second acetylcholine administration was recorded as the pre-administration of the tested rat (pre-value). Five (5) minutes afterthe second acetylcholine-induced reaction measurement, the test compound or isotonic sodium chloride solution was intravenously administered. Five (5) minutes thereafter, acetylcholine was administered and whereby induced airway resistance change was measured. In this experiment, one-dosage evaluation was conducted per one animal of the tested rats. The changes in acetylcholine-induced airway resistance-increasing reaction (% of pre-value) caused by the tested compound and isotonic sodium chloride solution were calculated by the following Equation 1: […]
(§2) The inhibitory effect (inhibition ratio) of each test compound on the acetylcholine-induced airway resistance-increasing reaction was determined according to the following Equation 2.
(§3) Fifty (50)% inhibition dose (ED50; μg/kg) was calculated from the inhibition ratio of each dose of the tested compound.

Test [2] has as its system muscarinic M3 receptor. Described as above. On the set-up: species or system rat. To be noted: for Selectivity M1/M3 (in vivo): ratio of ED50 M1 to ED50 M3, rats i.v.; for Selectivity M2/M3 (in vivo): ratio of ED50 M2 to ED50 M3, rats i.v. Here is the method:
as §1, §2, §3

Test [3] deals with T2, M2 receptor in isolated rat right atrium (Rattus norvegicus, UniProt P10980).
T2 construct: from tissue; host or cells: right atrium of male SD rats
T2 sequence (P10980 1-466): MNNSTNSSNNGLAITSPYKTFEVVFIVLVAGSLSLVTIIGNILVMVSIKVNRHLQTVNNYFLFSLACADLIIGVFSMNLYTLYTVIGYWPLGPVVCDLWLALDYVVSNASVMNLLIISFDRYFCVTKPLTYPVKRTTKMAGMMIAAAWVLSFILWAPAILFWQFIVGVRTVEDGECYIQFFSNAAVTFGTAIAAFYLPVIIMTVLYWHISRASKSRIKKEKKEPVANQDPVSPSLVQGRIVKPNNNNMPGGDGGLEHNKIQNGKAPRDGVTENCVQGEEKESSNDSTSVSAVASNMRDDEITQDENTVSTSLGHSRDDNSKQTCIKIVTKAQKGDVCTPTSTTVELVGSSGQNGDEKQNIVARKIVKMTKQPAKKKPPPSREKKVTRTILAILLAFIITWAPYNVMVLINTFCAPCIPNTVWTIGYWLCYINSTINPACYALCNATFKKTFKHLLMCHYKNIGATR
Kind of test: Antagonism to M2 receptor in isolated rat right atrium (carbachol-induced decrease in heart rate). The format is cell-based. To be noted: shift of carbachol dose-response curve. Here is the method: The test was performed according to a conventional method. Male SD strain rats (weighing 300-500 g) were killed by exsanguination, and from each of them the right atrium was isolated. Each preparation was isometrically suspended in a Magnus tube filled with 20 ml of Krebs-Henseleit solution (gassed with 95% O2-5% CO2 and kept at 32° C.) with an initial tension of 0.5 g. The heart rate was recorded with a heart rate counter. After the preparation was equilibrated for 30 minutes, carbachol (10^−9 to 10^−6 M) was cumulatively administered from a low concentration to three-fold increasing doses and accompanying decrease in heart rate was measured to obtain a dose-responsecurve for the control experiment. Afterthe preparation was washed with fresh solution to restore the heart rate, a test compound was administered thereto. Ten minutes later, carbachol was cumulatively administered again. Responses to carbachol were expressed as percentages based on the heart rate before administration of carbachol as 100%. The antagonistic potency (KB value) of the test compound was determined from the degree of shift of the dose-responsecurve attributable to the treatment with individual test compound of the present invention. The results were as shown in Tables 2-1 and 2-2. • 2) Test for Antagonism to the Airway M3 Receptor in Isolated Rat Trachea

The target in test [4] is T3, human m5 muscarinic acetylcholine receptor expressed in CHO cells (Homo sapiens, UniProt P08912).
T3 construct: purchased Receptor Biology, Inc; host or cells: CHO cells
T3 sequence (P08912 1-532): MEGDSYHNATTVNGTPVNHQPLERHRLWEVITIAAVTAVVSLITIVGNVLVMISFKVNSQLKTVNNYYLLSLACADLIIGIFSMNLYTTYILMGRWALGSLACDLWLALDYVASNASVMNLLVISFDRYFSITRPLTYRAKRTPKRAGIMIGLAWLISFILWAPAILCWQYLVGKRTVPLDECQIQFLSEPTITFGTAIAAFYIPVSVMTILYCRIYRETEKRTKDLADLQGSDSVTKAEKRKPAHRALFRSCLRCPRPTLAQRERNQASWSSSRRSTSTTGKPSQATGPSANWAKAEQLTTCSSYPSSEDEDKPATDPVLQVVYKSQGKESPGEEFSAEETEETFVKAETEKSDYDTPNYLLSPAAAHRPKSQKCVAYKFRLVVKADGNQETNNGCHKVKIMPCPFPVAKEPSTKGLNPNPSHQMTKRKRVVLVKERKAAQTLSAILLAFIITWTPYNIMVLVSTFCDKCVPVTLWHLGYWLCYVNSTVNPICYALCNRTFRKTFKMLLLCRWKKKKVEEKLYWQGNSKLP
Kind of test: Inhibition of [3H]-N-methylscopolamine binding to muscarinic m5 receptor. To be noted: 0.2 nM [3H]-N-methylscopolamine. Here is the method: These tests were performed according to a modification of the method of Hargreaves, et al. (Br. J. Pharmacol. 107: 494-501, 1992). Namely, muscarinic acetylcholine receptors of human m1, m2, m3, m4 and m5 expressed in CHO cells (Receptor Biology, Inc.) were incubated with 0.2 nM [^3H]-N-methylscopolamine (82Ci/mmol, New England Nuclear, Inc.) and a test compound to be tested in 0.5 ml of 50 mM Tris-HCl, 10 mM MgCl2, 1 mM EDTA solution (pH 7.4) for 120 minutes at room temperature (about 20-25° C.), followed by suction filtration over a glass filter (UniFilter plate-GF/C; Packard). Then the filter was washed four times with 1 ml of ice-cold Tris-HCl buffer and dried at 50° C. for an hour. After adding a scintillator (Microscinti 0; Packard), the radioactivity of [^3H]-N-methylscopolamine binding to the filter was counted with a microplate scintillation counter (TopCount™; Packard). Non-specific receptor binding of [^3H]-N-methylscopolamine was measured by adding 1 μM N-methylscopolamine.

SMILES strings stand for the structures. Where only a bound is given, the exact number is not on record here.

T1 sequence (P08483 whole entry): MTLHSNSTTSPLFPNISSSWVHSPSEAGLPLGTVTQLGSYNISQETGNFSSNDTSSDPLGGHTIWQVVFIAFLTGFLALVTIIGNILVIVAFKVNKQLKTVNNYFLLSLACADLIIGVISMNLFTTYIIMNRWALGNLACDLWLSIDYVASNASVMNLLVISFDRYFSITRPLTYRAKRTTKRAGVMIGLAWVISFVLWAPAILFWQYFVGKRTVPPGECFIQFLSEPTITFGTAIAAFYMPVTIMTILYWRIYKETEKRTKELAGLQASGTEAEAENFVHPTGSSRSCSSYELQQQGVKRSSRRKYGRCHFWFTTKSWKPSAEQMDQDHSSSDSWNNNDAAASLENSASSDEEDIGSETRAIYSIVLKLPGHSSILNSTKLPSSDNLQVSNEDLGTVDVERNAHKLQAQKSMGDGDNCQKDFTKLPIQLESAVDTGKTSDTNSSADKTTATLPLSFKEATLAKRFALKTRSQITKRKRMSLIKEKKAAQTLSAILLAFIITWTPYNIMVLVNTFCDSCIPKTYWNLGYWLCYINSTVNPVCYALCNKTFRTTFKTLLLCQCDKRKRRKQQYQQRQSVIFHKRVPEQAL

The term ED50 denotes the dose that gives a 50% effect, or the effect in half of the subjects. As a reminder, the Kb is the affinity of an antagonist, worked out from how it opposes an agonist. As usually defined, the Ki is the dissociation constant of the complex between target and ligand, obtained from inhibition or displacement. Lower therefore signals higher affinity. Regarding `O=C(CCNC(=O)CNC(=O)CC(c1ccccc1)(c1ccccc1)c1ccccc1)NC[C@H]1CCCN(CC2CCCCC2)C1` [Example 12, N-{2-(3-{((3R)-1-cyclohexylmethyl-3-piperidyl)methyl}amino-3-oxopropyl)amino-2-oxoethyl}-3,3,3-triphenyloropanamide], the ED50 on muscarinic M3 receptor [1] came to 15 µg/kg. In the test with muscarinic M3 receptor [2], the “Selectivity M1/M3 (in vivo)” value is recorded as more than 200 times and the “Selectivity M2/M3 (in vivo)” value turned out to be 100 times. Besides, the antagonist equilibrium constant (Kb) in test [3] was 160 nM. Also, the Ki in test [4] stood at 32 nM.

In the case of `CC[N+]1(CC)CCC[C@H](CNC(=O)[C@H]2CCCN2C(=O)[C@@H]2C[C@@H](O)CN2C(=O)CC(c2ccccc2)(c2ccccc2)c2ccccc2)C1.[Cl-]` [Example 133, (3R)-1,1-diethyl-3-({({(2R)-1-({(2S,4R)-4-hydroxy-1-(3,3,3-triphenylpropanoyl)-2-pyrrolidinyl}carbonyl)-2-pyrrolidinyl}carbonyl)amino}methyl)piperidinium chloride], the 50% effective dose (ED50) at muscarinic M3 receptor [1] was 2.1 µg/kg. Also, in the test with muscarinic M3 receptor [2], the “Selectivity M1/M3 (in vivo)” value was more than 143 times and the “Selectivity M2/M3 (in vivo)” value was 54 times. For the same compound, in test [3], the antagonist dissociation constant (Kb) amounted to 41 nM. Also, the affinity in test [4], expressed as Ki, was 1600 nM.
